The source of these data is US20240277810A1, “INTERFERONS AND NUCLEAR EXPORT INHIBITORS FOR USE IN METHODS OF TREATING CANCER” (St. Jude Children's Research Hospital, Inc., priority 2021, published 2024).

For one assay, the system named is endogenous dsRNA. As to the kind of experiment: dsRNA by J2 antibody dot-blot analysis and immunofluorescence in BMDMs. It is filed as cell-based, mouse. As to conditions: for amount of dsRNA: Adar1−/− BMDMs; for amount of dsRNA compared with media-treated cells: wild-type BMDMs. The protocol:
Dot Blot Analysis. For dsRNA analysis, total RNA was isolated from the cells. Equal volumes (2 μl containing 1 μg of RNA) of the RNA were dotted on HYBONDO N+ membrane (GE Healthcare), dried and auto crosslinked in a UV Stratalinker 2400 (Stratagene) two times. The membrane was then blocked in 5% milk in TBST for 1 hour and probed with J2 antibody (1:1000, Scicons) at 4° C. overnight. On the next day, the membrane was washed with TBST 3 times and probed with secondary goat-anti-mouse HRP antibody in 5% milk at room temperature for 1 hour. The total […] was detected using methylene blue.
Immunofluorescence Staining. BMDMs were washed with phosphate-buffered saline (PBS) and fixed in 4% paraformaldehyde for 15 minutes at room temperature, followed by permeabilization for 10 minutes in 0.5% TRITON® X-100 (2-[4-(2,4,4-trimethylpentan-2-yl)phenoxy]ethanol). Cells were blocked in 5% normal goat serum (Life Technologies) for 1 hour at room temperature. Samples were incubated with anti-ZBP1 antibody (1:250 dilution, Adipogen) or anti-J2 antibody (1:100, Millipore) overnight at 4° C. Cells were then washed three times with PBS and incubated with ALEXA FLUOR® 647 fluorescent dye-conjugated antibody against mouse immunoglobulin G (1:250, Invitrogen) and counterstained with DAPI (4′,6-diamidino-2-phenylindol, Life Technologies) for 1 hour at room temperature. Cells were washed three times with PBS and imaged using a Leica SP8 confocal microscope.

The subject of the next assay is ZBP1. As to the kind of experiment: Co-immunoprecipitation of ZBP1 with ADAR1 and RIPK3 in BMDMs. It is filed as cell-based, mouse. As to conditions: wild-type BMDMs, 12 hours. The protocol:
Co-Immunoprecipitation Assay. BMDMs (10×10^6 cells) were seeded into 10-cm dishes and treated with IFN-β or KPT-330 or combination of IFN-β and KPT-330 for 12 hours. Then, the cells were lysed in a buffer containing 20 mM Tris-HCl (pH 7.4), 100 mM NaCl, 30 mM KCl, and 0.1% NP-40. After centrifugation at 16,000 g for 10 minutes, the lysates were incubated with anti-ZBP1 antibody (AdipoGen) with protein A/G PLUS-Agarose (Santa Cruz Biotechnology) for overnight incubation at 4° C. After washing with the above buffer, the immunoprecipitated proteins were harvested by boiling in 1×SDS loading buffer at 100° C. for 5 minutes.

Assay [1] relates to bone marrow-derived macrophages (BMDMs). As to the kind of experiment: Cell death in BMDMs quantified by propidium iodide staining (real-time imaging). It is filed as cell-based, mouse. The settings on record: for cell death compared with wild-type cells: Adar1−/− BMDMs; for cell death (PI staining): wild-type BMDMs, 24 hours, 5 μM KPT-330 or 5 ng/ml leptomycin B, with or without 50 ng/mL IFN-β or IFN-γ. The protocol: (§1) Cell Culture. Primary mouse bone marrow-derived macrophages (BMDMs) were generated from the bone marrow of wild-type and the indicated mutant mice. Cells were grown for 5-6 days in Iscove's Modified Dulbecco's Media (IMDM, Thermo Fisher Scientific) supplemented with 1% non-essential amino acids (Thermo Fisher Scientific), 10% fetal bovine serum (FBS, Biowest), 30% L929-conditioned media, and 1% penicillin and streptomycin (Thermo Fisher Scientific). BMDMs were then seeded into antibiotic-free media at a concentration of 1×10^6 cells into 12-well plates and incubated overnight.
(§2) Cell Stimulation. BMDMs were treated with 5 μM of KPT-330 (Selleckchem) or 5 ng/ml of leptomycin B (Sigma) in the presence and absence of 50 ng/mL of IFN-γ (Peprotech) or 50 ng/mL of IFN-β (PBL Assay) for 12 or 24 hours, as indicated.
Real-time Imaging for Cell Death. The kinetics of cell death were determined using the INCUCYTE® S3 (Essen BioScience) live-cell analysis system. BMDMs (5×10^5 cells/well) were seeded in 24-well tissue culture plates. Cells were treated with the indicated stimuli and stained with propidium iodide (PI; Life Technologies) following the manufacturer's protocol. The plate was scanned, and fluorescent and phase-contrast images (4 image fields/well) were acquired in real-time every 1 hour from 0 to 24 hours post-treatment. PI-positive dead cells are marked with a red mask for visualization. The image analysis, masking, and quantification of dead cells were done using the software package supplied with the INCUCYTE® imager.

For assay [2], the system named is endogenous retroelements (EREs). As to the kind of experiment: RT-PCR expression of endogenous retroelements (EREs) in BMDMs. It is filed as cell-based, mouse. The settings on record: wild-type BMDMs, NEI alone. The protocol:
RT-PCR Analysis. Total RNA was extracted using TRIZOL® (Thermo Fisher Scientific) and converted into cDNA by using the High-Capacity cDNA Reverse Transcription Kit (Applied Biosystems). Real-time quantitative PCR was performed on an Applied Biosystems 7500 real-time PCR instrument with 2×SYBR™ Green (Applied Biosystems). For ERE expression analysis, 5 μg of total RNA extracted from the cells was dissolved in 46 μl of water and mixed with 3.5 μl NaCl (5 M stock). Then, 0.5 μl RNase A (10 mg/ml stock, Thermo Fisher Scientific) or water (as mock) was added to a total volume of 50 μl and mixed, followed by incubation at room temperature for 10 minutes. Then 1 ml acid-guanidinium-phenol based reagent sold under the tradename TRIZOL® was directly added to the mixture to terminate digestion, and the RNA was extracted. The RNA transcripts of selected endogenous retroelements (EREs) were measured by RT-PCR with GAPDH as an internal control. The ratios of (ERE/GAPDH)RNAase-A/(ERE/GAPDH)mock were calculated as fold enrichment.

For a further assay, the system named is B16-F10 melanoma cells. As to the kind of experiment: B16-F10 melanoma model in mice. It is filed as in vivo, mouse. As to conditions: wild-type mice; KPT-330 15 mg/kg oral, IFN-γ 10 μg or IFN-α/IFN-β 1 μg i.p., days 8, 10 and 13 after implantation. How it is done:
Melanoma Model. The mouse melanoma cell line B16-F10 (ATCCR CRL-6322™) was cultured in a humidified, 5% CO2 incubator at 37° C., and grown in Dulbecco's Modified Eagle Medium (DMEM) with 10% FBS and 100 U/mL penicillin/streptomycin. Male and female 6-12-week-old mice were shaved on their lower back and engrafted with B16-F10 melanoma cells by subcutaneously injecting 1×10^6 cells in 200 μL PBS. Tumors were measured with digital calipers, and tumor volume was calculated using the formula: volume=(length×width^2)×½. For treatment with IFN-γ (Peprotech), each mouse was injected interperitoneally with 10 μg of IFN-γ in 100 μl of saline. For treatment with IFN-α or IFN-β, each mouse was injected interperitoneally with 1 μg of IFN-α or IFN-β. For treatment with KPT-330 (Selleckchem), each mouse was orally administered 300 μl of KPT-330 (15 mg/kg) suspended in 0.6% polyoxyalkylene ether sold under the tradename PLURONIC® (Gibco) and 0.6% polyvinylpyrrolidone. The treatment was given on days 8, 10 and 13 after tumor implantation.

The subject of a further assay is BMDMs. Put plainly: Immunoblot analysis of pyroptosis, apoptosis and necroptosis (PANoptosis) molecules in BMDMs. It is filed as cell-based, mouse. As to conditions: for cleavage of caspase-1 and activation of GSDME, caspase-8, -3, -7 and MLKL: Adar1−/− BMDMs, NEI alone. The protocol: as §1, §2
Immunoblot Analysis. Cell lysates and culture supernatants were combined in caspase lysis buffer (containing 1× protease inhibitors (Roche), 1× phosphatase inhibitors (Roche), 10% NP-40, and 25 mM DTT) and 4× sample loading buffer (containing SDS and 2-mercaptoethanol) for immunoblot analysis of caspases. For immunoblot analysis of signaling components, supernatants were removed, and cells were washed once with Dulbecco's phosphate-buffered saline (DPBS, Thermo Fisher Scientific), followed by lysis in radioimmunoprecipitation assay (RIPA) buffer and sample loading buffer. Proteins were separated by electrophoresis through 8-12% polyacrylamide gels. Following electrophoretic transfer of proteins onto polyvinylidene fluoride (PVDF) membranes (Millipore), nonspecific binding was blocked by incubation with 5% skim milk, then membranes were incubated with primary antibodies against: caspase-3 (Cell Signaling Technology (CST), 1:1000), cleaved caspase-3 (CST, 1:1000), caspase-7 (CST, 1:1000), cleaved caspase-7 (CST, 1:1000), caspase-8 (AdipoGen, 1:1000), cleaved caspase-8 CST, 1:1000), caspase-11 (Novus Biologicals, 1:1000), caspase-1 (AdipoGen, 1:1000), GAPDH (CST, 1:1000), ZBP1 (AdipoGen, 1:1000), pMLKL (CST, 1:1000), tMLKL (Abgent, 1:1000), ADAR1 (Santa Cruz Biotechnology, 1:500), tRIPK1 (CST, 1:1000), GSDMD (Abcam, 1:1000), GSDME (Abcam, 1:1000), RIPK3 (CST, 1:1000), pSTAT1 (CST, 1:1000), tSTAT (CST, 1:1000), pIRF3 (CST, 1:1000), HA (Millipore, 1:1000), β-actin (Proteintech, 1:1000). Membranes were then washed and incubated with the appropriate horseradish peroxidase (HRP)-conjugated secondary antibodies (Jackson ImmunoResearch Laboratories; anti-rabbit, 1:5000; anti-mouse 1:5000; and anti-rat, 1:5000). Proteins were visualized using Immobilon Forte Western HRP Substrate (Millipore).

Entries after “also recorded” stand apart in the source; their conditions may differ.

`O=C(/C=C\n1cnc(-c2cc(C(F)(F)F)cc(C(F)(F)F)c2)n1)NNc1cnccn1` [KPT-330, selinexor]: in the assay on endogenous dsRNA, the “amount of dsRNA” value is listed as “An increase in the amount of dsRNA” and the “amount of dsRNA compared with media-treated cells” value is recorded as “slightly increased the amounts of dsRNA”. For the same molecule, in the assay with ZBP1, the “interaction of ZBP1 with ADAR1” value was “some interaction” and the “interaction of ZBP1 with RIPK3” value is reported as “some interaction”. In assay [1], the “cell death compared with wild-type cells” value is on record as “increased cell death” and the “cell death (PI staining)” value is “low level of cell death”. The “expression of EREs (Mus-D, Line1, ERV-L)” value in assay [2] is given as “slightly upregulated”. Also, in the assay with B16-F10 melanoma cells, the “melanoma tumor growth / regression” value is given as “reduced melanoma growth”. For the same molecule, the “cleavage of caspase-1 and activation of GSDME, caspase-8, -3, -7 and MLKL” value with BMDMs is “increased cleavage of caspase-1 and activation”. Moreover, in the assay with BMDMs (wild-type BMDMs), the “apoptosis: cleavage of caspase-8, -3 and -7” value is given as “induced apoptosis”; the “cleavage of GSDME (pyroptosis)” value was “displayed cleavage of GSDME”; the “phosphorylation of MLKL (necroptosis)” value is “low level of phosphorylation of MLKL”.

With `CCC(=C/[C@H](C)C/C=C/C(C)=C/[C@@H](C)C(=O)[C@@H](C)[C@H](O)[C@@H](C)C/C(C)=C/C(=O)O)/C=C/[C@@H]1OC(=O)C=C[C@@H]1C` [LMB, Leptomycin B], in the assay with endogenous dsRNA, the “amount of dsRNA” value is listed as “An increase in the amount of dsRNA” and the “amount of dsRNA compared with media-treated cells” value is on record as “slightly increased the amounts of dsRNA”. Besides, in assay [1], the “cell death compared with wild-type cells” value is on record as “increased cell death” and the “cell death (PI staining)” value is “low level of cell death”. The “expression of EREs (Mus-D, Line1, ERV-L)” value in assay [2] was “slightly upregulated”. The “cleavage of caspase-1 and activation of GSDME, caspase-8, -3, -7 and MLKL” value in the assay with BMDMs was “increased cleavage of caspase-1 and activation”. In the assay on BMDMs (wild-type BMDMs), the “apoptosis: cleavage of caspase-8, -3 and -7” value was “induced apoptosis”; the “cleavage of GSDME (pyroptosis)” value is recorded as “displayed cleavage of GSDME”; the “phosphorylation of MLKL (necroptosis)” value is listed as “low level of phosphorylation of MLKL”.

B1: IFN-β: type I interferon (PBL Assay), 50 ng/mL in cells, 1 μg per mouse (protein, listed as Homo sapiens)
chain: MTNKCLLQIALLLCFSTTALSMSYNLLGFLQRSSNFQCQKLLWQLNGRLEYCLKDRMNFDIPEEIKQLQQFQKEDAALTIYEMLQNIFAIFRQDSSSTGWNETIVENLLANVYHQINHLKTVLEEKLEKEDFTRGKLMSSLHLKRYYGRILHYLKAKEYSHCAWTIVRVEILRNFYFINRLTGYLRN
For B1, the “interaction of ZBP1 with ADAR1” value in the assay on ZBP1 is recorded as “robust interaction”. Further, the “expression of ZBP1 / ADAR1” value with BMDMs (wild-type BMDMs) is “induced ZBP1 expression; also recorded: upregulated”.
